We go through six compounds from patent US20100240768A1, “NOVEL NUTRACEUTICALCOMPOSITIONS CONTAINING THYMOL AND/OR P-CYMENE OR PLANT EXTRACTS FOR COGNITION” (priority 2007, published 2010).

Assay [1] relates to pCREB. The experiment in a line: Hippocampal slice cultures, synaptic marker pCREB (immunohistochemistry). Particulars: 15 min treatment of slices after 48 h culture; compared to sister cultures treated with buffer. The assay is classed as cell-based, Wistar rats. As to the method:
(§1) Seven-day-old Wistar rats were decapitated using a guillotine. In less than 1 minute the skull was opened, the cerebral hemispheres were separated and transferred and both hippocampi were dissected and transferred into ice cold buffer containing 137 mM NaCl, 5 mM KCl, 0.85 mM Na2HPO4, 1.5 mM CaCl2, 0.66 mM KH2PO4, 0.28 mM MgSO4, 1 mM MgCl2, 2.7 mM NaHCO3, 1 mM Kynurenic acid and 0.6% D-glucose.
(§2) Transversal hippocampal slices (400 μm) were prepared using a vibrating blade microtome (VT1200S; Leica Microsystems (Schweiz) AG, Heerbrugg, Switzerland) in the same buffer. Hippocampal slices were individually placed on a membrane insert (Millicell Culture Plate Inserts, 0.4 μm) and cultivated at 35° C., 5% CO2, 95% humidity in a medium containing a 1:1 mixture of BME and MEM (both from Invitrogen) containing 25% heat-inactivated horse serum, 1× GlutaMAX, 1× Penicillin/Streptomycin, 0.6% glucose and 1 mM Kynurenic acid (Stoppini, Buchs and Muller (1991), J. Neurosci. Methods, 37(2), 173-82).
(§3) After 48 h in culture, synaptic NMDA receptors were activated by addition of thyme extract or its constituents for 15 min in 140 mM NaCl, 5 mM KCl, 1.3 mM CaCl2, 25 mM HEPES (pH 7.3), 33 mM D-glucose and 0.02 mM bicuculline methiodide. […] An additional positive control comprised the addition of 200 μM glycine to sister cultures. After the treatments, sections were washed and fixed for immunohistochemistry. Markers of enhanced synaptic activity, normally associated with long-term potentiation, representing an ex vivo model of learning and memory were quantitated (see Table 2, below).
(§4) Table 2. […]. The activation of any of these markers (or a combination thereof) is observed in classical LTP experiments.
(§5) Treatment of hippocampal cultures with thyme extracts as well as with both p-cymene and thymol induced biochemical markers typical for LTP (pCREB: activated form of the cAMP response element binding protein; pMAPK: activated form of the mitogen-activated protein kinase; GLUR1: cell surface presence of AMPA receptor 1).

Assay [2] concerns GluR1. As to the kind of experiment: Hippocampal slice cultures, synaptic marker GluR1 (cell surface AMPA receptor 1). Type of assay: cell-based, Wistar rats. The note with it: 15 min treatment of slices after 48 h culture; compared to sister cultures treated with buffer. The procedure:
as §1, §2, §3, §4, §5

For assay [3], the system named is pMAPK. The experiment in a line: Hippocampal slice cultures, synaptic marker pMAPK (immunohistochemistry). The assay is classed as cell-based, Wistar rats. Particulars: 15 min treatment of slices after 48 h culture; compared to sister cultures treated with buffer. The procedure:
as §1, §2, §3, §4, §5

Assay [4] deals with T1, human glycine transporter 1b (GlyT1) (Homo sapiens, UniProt P48067).
T1 construct: expressed in transfected cells
T1 sequence (P48067 1-652 isoform P48067-3): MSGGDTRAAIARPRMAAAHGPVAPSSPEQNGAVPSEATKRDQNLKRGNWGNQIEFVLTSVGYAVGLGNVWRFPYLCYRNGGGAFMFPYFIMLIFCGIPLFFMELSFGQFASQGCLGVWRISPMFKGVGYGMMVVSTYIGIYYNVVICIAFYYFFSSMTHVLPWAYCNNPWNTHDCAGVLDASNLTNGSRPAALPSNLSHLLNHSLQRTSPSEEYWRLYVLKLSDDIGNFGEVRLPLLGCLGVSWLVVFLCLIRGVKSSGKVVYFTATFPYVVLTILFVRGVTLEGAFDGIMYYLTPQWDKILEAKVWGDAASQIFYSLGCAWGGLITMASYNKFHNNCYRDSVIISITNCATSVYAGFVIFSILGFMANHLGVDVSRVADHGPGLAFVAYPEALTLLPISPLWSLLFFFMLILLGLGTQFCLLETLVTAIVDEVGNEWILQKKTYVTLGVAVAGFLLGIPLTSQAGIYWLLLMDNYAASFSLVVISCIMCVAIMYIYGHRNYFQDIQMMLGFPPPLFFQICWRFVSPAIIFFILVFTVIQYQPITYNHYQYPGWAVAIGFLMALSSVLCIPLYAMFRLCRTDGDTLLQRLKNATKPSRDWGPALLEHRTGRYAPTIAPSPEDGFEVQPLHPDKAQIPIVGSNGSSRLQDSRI
As to the kind of experiment: Inhibition of glycine transporter 1 in a cellular assay ([3H]glycine uptake into CHO cells). The assay is classed as cell-based. Particulars: for IC50 for tritiated glycine uptake: CHO cells expressing human GlyT1b, pure compounds, mean±s.e.m.; for IC50: dose-response curve, internalization of radioactive glycine into the cells, read-out: IC50 (FIG. 1, GlyT1 inhibition assay). The procedure: Cells were harvested by trypsinisation one day prior to the assay and were seeded in the above mentioned medium. […] Glycine uptake into the cells was determined by addition of 60 nM radio-labelled [^3H] glycine (Amersham Biosciences GE Healthcare, Slough, UK) and incubation for 30 minutes at room temperature. Following removal of unincorporated label by gentle washing three times with the above buffer, incorporated glycine was quantified by liquid scintillation counting. […] Louis, USA) were used as known inhibitors of GlyT1.

The test system of assay [5] is adult mice. The note with it: systemic administration, Kinney et al 2003; cited from earlier work.
For assay [6], the system named is NMDA receptor. The note with it: rat hippocampal slice preparation; Bergeron et al 1998; cited from earlier work.
Assay [7] relates to adult mice. Particulars: systemic administration, Kinney et al 2003; cited from earlier work. This is another data set of the same source.
Assay [8] relates to NMDA receptor. Particulars: mouse hippocampal slice preparation; Bergeron et al 1998; cited from earlier work.

Like-named read-outs stand apart in the source and are kept apart here.

Turning to `C=CC(C)(O)CCC=C(C)C` (stereo not shown) [Linalool], the pCREB relative activation result in assay [1] is “±”. Further, the “GluR1 relative activation (symbol)” value in assay [2] is recorded as “±”. For the same compound, in assay [3], the pMAPK relative activation entry is “±”. Besides, the “IC50 for tritiated glycine uptake” value in assay [4] was “inactive”.
On to `CN(CCC(Oc1ccc(-c2ccccc2)cc1)c1ccc(F)cc1)CC(=O)O` (stereo not shown) [NFPS, N-[3-(4′-fluorophenyl)-3-(4′-phenylphenoxy)]propylsarcosine], for which, in assay [5], the “Prepulse inhibition of the acoustic startle response” value is recorded as “enhanced”. For the same compound, the “NMDA receptor responses in CA1 pyramidal cells” value in assay [6] and in assay [8] was “enhanced” each time. Moreover, in assay [7], the “LTP in the dentate gyrus” value is listed as “increased”.
Turning to `Cc1ccc(C(C)C)cc1` [P-Cymene], the pCREB relative activation result in assay [1] is given as “++”. Moreover, the “GluR1 relative activation (symbol)” value in assay [2] was “±”. In addition, the pMAPK relative activation entry in assay [3] is “++++”. In addition, in assay [4], the “IC50 for tritiated glycine uptake” value is “inactive”.
A word on the IC50: it is the concentration needed to halve the response being measured. `CNCC(=O)O` [Sarcosine, reference compound]: in assay [4], the IC50 came to 0.0359 µM.
Consider `Cc1ccc(C(C)C)c(O)c1` [Thymol], for which the pCREB relative activation entry in assay [1] is “++++”. For the same compound, the GluR1 relative activation in assay [2] is 250-767%. Further, the IC50 in assay [4] came out at 13.6 µM.
Consider Caryophyllene, for which the pCREB relative activation result in assay [1] was “±”. Moreover, in assay [3], the pMAPK relative activation result is “±”. Besides, in assay [4], the “IC50 for tritiated glycine uptake” value is “inactive”.
